According to ChEMBL document CHEMBL5316370, “Laeviganoids A-T, ent-Clerodane-Type Diterpenoids from Croton laevigatus” (2023):
Active and inactive are the calls of the source. No cut-off for these calls is given here.

How the values were obtained:
[1] = test system: RAW264.7; assay: Anti-inflammatory activity against IL-4/IL-13 stimulated mouse RAW264.7 cells assessed as inhibition of IL-10 secretion at 20 uM incubated for 48 hrs by ELISA method; type: functional, cell-based
[2] = test system: RAW264.7; assay: Anti-inflammatory activity against IL-4/IL-13 stimulated mouse RAW264.7 cells assessed as inhibition of IL-10 secretion at 5 to 20 uM incubated for 48 hrs by ELISA method relative to control; type: functional; settings: dose 5-20 µM
[3] = test system: RAW264.7; assay: Anti-inflammatory activity against IL-4/IL-13 stimulated mouse RAW264.7 cells assessed as upregulation of TNFalpha secretion at 20 uM incubated for 48 hrs by ELISA method; type: functional, cell-based
[4] = test system: RAW264.7; assay: Anti-inflammatory activity against IL-4/IL-13 stimulated mouse RAW264.7 cells assessed as upregulation of TNFalpha secretion at 5 to 20 uM incubated for 48 hrs by ELISA method relative to control; type: functional; settings: dose 5-20 µM

Row | SMILES | inhibition [1] | inhibition (INH) [2] [%] | Activity [3] | Activity [4] [%]
1 | CC(=O)O[C@@H]1[C@@H](c2ccoc2)OC(=O)[C@@H]2CC[C@@]3(C)C(C)C(=O)CC[C@@H]3[C@@]12C (stereo partly drawn) | Active |  |  | 
2 | CO[C@@]1(C)[C@H](O)CC[C@@H]2[C@@]3(C)[C@H](OC(=O)c4ccccc4)[C@@H](c4ccoc4)OC(=O)[C@@H]3CC[C@]21C | Active | >40 | Active | >40
3 | CC(=O)O[C@@H]1[C@@H](c2ccoc2)OC(=O)[C@@H]2CC[C@]3(C)[C@H](CC[C@@H](O)[C@]3(C)O)[C@@]12C | Active |  |  | 
4 | C=C1[C@H](O)CC[C@@H]2[C@@](C)(C[C@H](O)c3ccoc3)[C@H](C)CC[C@@]12C | Active |  |  | 
5 | C[C@@H]1CC[C@]2(C)[C@H](CC[C@@H](O)[C@]2(C)O)[C@@]1(C)CC(=O)c1ccoc1 | Active |  |  | 
6 | C[C@@H]1C(=O)CC[C@@H]2[C@@](C)(CCc3ccoc3)[C@H](CO)CC[C@]21C | Active |  |  | 
7 | COC(=O)[C@@H]1CC[C@]2(C)[C@H](CC[C@@H](O)[C@]2(C)OC)[C@@]1(C)CC(=O)c1ccoc1 | Active |  | Active | 
8 | C[C@@H]1CC[C@]2(C)[C@H](CCC(=O)[C@H]2C)[C@@]1(C)CC(=O)c1ccoc1 | Active |  |  | 
9 | COC(=O)[C@@H]1CC[C@]2(C)[C@H](CC[C@@H](O)[C@]2(C)O)[C@@]1(C)CC(=O)c1ccoc1 | Active |  | Active | 
10 | CC1=CC(=O)O[C@@H]1C[C@@]1(C)[C@H](C)CC[C@@]2(C)C(C)=CCC[C@H]12 | Active |  |  | 
11 | C[C@@H]1CC[C@]2(C)[C@H](CC[C@@H](O)[C@]2(C)O)[C@@]1(C)CCc1ccoc1 | Active |  | Active | 
12 | C/C(=C\CO)CC[C@@]1(C)[C@H](C)CC[C@@]2(C)C(CO)=CCC[C@H]12 | Active | >40 | Active | >40
13 | C[C@]1(CCc2ccoc2)[C@H](CO)CC[C@]2(C)[C@@H]1CC[C@@H](O)[C@]2(C)O | Active |  |  | 
14 | C=C1[C@H](O)CC[C@@H]2[C@@](C)(CC(=O)c3ccoc3)[C@H](C)CC[C@@]12C | Active |  |  | 
15 | CC1=CCC[C@@H]2[C@@]3(C)C[C@@H](c4ccoc4)OC(=O)[C@@H]3CC[C@@]12C | Active |  |  | 
16 | C[C@]12C[C@@H](c3ccoc3)OC(=O)[C@@H]1CC[C@]1(C)[C@@H]2CC[C@H](Cl)[C@@]1(C)O | Active |  |  | 
17 | C[C@]12C[C@@H](c3ccoc3)OC(=O)[C@@H]1CC[C@]1(C)[C@@H]2CCC(=O)[C@]1(C)O | Active |  |  | 
18 | C[C@]12[C@H](OC(=O)c3ccccc3)[C@@H](c3ccoc3)OC(=O)[C@@H]1CC[C@]1(C)[C@@H]2CC[C@@H](O)[C@]1(C)O | Active |  |  | 
19 | C[C@]12C(=CC[C@]3(C)[C@@H]1CC[C@@H](O)[C@]3(C)O)C(=O)O[C@H](c1ccoc1)[C@H]2OC(=O)c1ccccc1 | Active |  |  | 
20 | CCO[C@@]1(C)[C@H](O)CC[C@@H]2[C@@](C)(CC(=O)c3ccoc3)[C@H](C)CC[C@]21C | Active | >40 | Active | >40
21 | C[C@@H]1CC[C@]2(C)[C@H](CCC(=O)[C@H]2C)[C@@]1(C)CCc1ccoc1 | Active |  | Active | 
22 | C[C@]12C[C@@H](c3ccoc3)OC(=O)[C@@H]1CC[C@]1(C)[C@@H]2CCC(=O)[C@@]1(C)O | Active |  |  | 
23 | CC1=CC(=O)O[C@H]1C[C@@]1(C)[C@H](C)CC[C@@]2(C)C(C)=CCC[C@H]12 | Active |  |  | 
24 | CC1=CC(=O)O[C@@H]1C[C@@]1(C)[C@H](C)CC[C@@]2(C)C(C)=CC(=O)C[C@H]12 | Active |  |  | 
25 | C[C@]1(C[C@H](O)c2ccoc2)[C@H](CO)CC[C@]2(C)[C@@H]1CC[C@@H](O)[C@]2(C)O | Active |  | Active | 
26 | CO[C@@]1(C)[C@H](O)CC[C@@H]2[C@@](C)(C[C@H](O)c3ccoc3)[C@H](C)CC[C@]21C | Active | >40 | Active | >40
